This is an account of results in publication PMC10304876 (Molecules, 2023).

Entries after “also recorded” stand apart in the source; their conditions may differ.

For orientation: EC50 means the concentration at which the effect is half-maximal. The term Emax denotes the size of the effect at its maximum, as opposed to the concentration needed. The IC50 is the point on the concentration scale where inhibition reaches its midpoint.

The target of data set [1] is T1, human µ-opioid receptor β-arrestin2 (Homo sapiens, UniProt P35372).
T1 construct: EFC (enzyme fragment complementation) fragment; host or cells: PathHunter CHO-K1
Kind of data set: cell-based. Particulars: for Emax: read-out: MOR β-Arrestin Recruitment %Emax ± SEM. (In general: Recruitment of arrestin is a read-out of receptor activation apart from second messengers.)

In data set [2] the target is T2, human δ-opioid receptor (OPRD1) (Homo sapiens, UniProt P41143). Kind of data set: Forskolin-induced cAMP accumulation assay, DOR agonist. Particulars: for Emax: read-out: DOR Agonist %Emax ± SEM, cAMP assay.
Data set [3] deals with squirrel monkeys (Saimiri sciureus). As to the kind of experiment: Warm-water tail withdrawal in squirrel monkeys. The format is in vivo. As to conditions: 52 °C water, cumulative dosing, n = 3 to 5. The method, then:
Male squirrel monkeys (Saimiri sciureus) were housed in a climate-controlled vivarium with a 12 h light/dark cycle (7 a.m.–7 p.m.) in the McLean Hospital Animal Care Facility (licensed by the U.S. Department of Agriculture and compliant with guidelines provided by the Committee on Care and Use of Laboratory Animals of the Institute of Laboratory Animals Resources, Commission on Life Sciences, National Research Council; 2011). These experiments were approved under IACUC protocol #2015N000165.
Tail withdrawal latencies were assessed as described previously. Briefly, monkeys were seated in customized Plexiglas chairs that allowed their tails to hang freely. Tail withdrawal latencies were measured by immersing the subject’s tail in water held at 35 °C or 52 °C (temperatures were presented in a randomized order during successive test components). After obtaining a baseline tail withdrawal latency, complete dose response curves were generated in each subject using standard cumulative dosing procedures. Briefly, every 15 min after an injection, tail withdrawal latencies at each temperature were redetermined and subjects were injected with the next dose, such that the total (cumulative) dose was increased by ½ log10 units in each successive cycle. This procedure was repeated until either (a) the tail withdrawal latency from 52 °C water reached the maximum allowable latency (10 s), or (b) tail withdrawal latency no longer increased with increases in dose of the test drug.
(§1) All statistical analyses and graphic representations were completed with GraphPad Prism version 9.3.0 (GraphPad Software, San Diego, CA, USA) using log-transformed values of doses. Group means ± SEM tail withdrawal latencies (in sec) and minute volume ratios are plotted as a function of drug dose. Data were analyzed using one-way ANOVA with significance set at p < 0.05, followed by Dunnett’s multiple comparison test.

Data set [4] shares this test system. As to the kind of experiment: Squirrel monkey ventilation (whole-body plethysmograph, air vs 5% CO2). Format: in vivo. Particulars: for respiratory depressant effects (ventilatory ratio: minute volumes in 5% CO2 vs room air): cumulative dosing, result in words. As for the experimental part:
These experiments were approved under IACUC protocol #2015N000165.
Ventilation measures were assessed as described previously. Briefly, squirrel monkeys were acclimated to a customized acrylic chamber (10′′d × 10′′w × 10′′h) that served as a whole-body plethysmograph (EMKA Technologies, Montreal, PQ, Canada). Gas (either air or a 5% CO2 in air mixture) was introduced to and extracted from the chamber at a constant flow rate of 5 L/min. Experimental sessions consisted of 4–6 consecutive 30 min cycles, each comprising a 20 min exposure to air followed by a 10 min exposure to 5% CO2. Drug effects were determined using cumulative dosing procedures, and injections were administered following each exposure to 5% CO2. Respiratory rate and tidal volume (mL/breath) were recorded over 1 min periods and were multiplied to provide minute volumes. Data from the last three minutes of each exposure to air or CO2 were averaged and used for analysis of drug effects on ventilation.
as §1

Another data set relates to rodent. The arrangement: method as in PMID 17625813. Particulars: rodent antinociceptive assays; cited from earlier work.
For data set [5], the target named is T2, human δ-opioid receptor (OPRD1). Kind of data set: Forskolin-induced cAMP accumulation assay, DOR antagonist. Particulars: for DOR Antagonist %Imax ± SEM: Imax normalized to naltrexone. Background: Cyclic AMP is a second messenger, typically raised through Gs and lowered through Gi signalling.
[6] abbreviates: normalized to the forskolin control.

T2 sequence (P41143 whole entry): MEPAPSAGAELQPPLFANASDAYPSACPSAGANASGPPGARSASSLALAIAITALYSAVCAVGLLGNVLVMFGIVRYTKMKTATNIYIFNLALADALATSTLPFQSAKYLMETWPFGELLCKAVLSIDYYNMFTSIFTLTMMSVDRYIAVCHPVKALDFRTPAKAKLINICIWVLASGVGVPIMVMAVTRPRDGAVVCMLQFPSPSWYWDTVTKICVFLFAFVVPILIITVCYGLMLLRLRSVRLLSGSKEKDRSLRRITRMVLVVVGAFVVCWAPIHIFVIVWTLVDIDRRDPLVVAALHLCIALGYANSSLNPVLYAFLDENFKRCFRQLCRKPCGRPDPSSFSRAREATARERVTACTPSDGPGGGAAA
T1 sequence (P35372 whole entry, the tested form may be a part): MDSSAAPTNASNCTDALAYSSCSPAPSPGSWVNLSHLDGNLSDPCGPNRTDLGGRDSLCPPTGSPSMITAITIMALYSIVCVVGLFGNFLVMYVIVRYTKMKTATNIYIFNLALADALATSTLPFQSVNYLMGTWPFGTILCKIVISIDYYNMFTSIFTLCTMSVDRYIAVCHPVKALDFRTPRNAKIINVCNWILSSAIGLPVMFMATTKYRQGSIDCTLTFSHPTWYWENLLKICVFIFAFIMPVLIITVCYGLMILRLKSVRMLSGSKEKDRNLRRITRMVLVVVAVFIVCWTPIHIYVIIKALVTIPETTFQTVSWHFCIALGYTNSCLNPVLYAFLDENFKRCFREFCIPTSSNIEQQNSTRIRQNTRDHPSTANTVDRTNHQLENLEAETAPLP

In the case of `OCC[C@H]1[C@@H]2CCC[C@@]1(c1cccc(O)c1)CCN2CCc1ccccc1` [Compound 21, 3-((1S,5R,9R)-9-(2-Hydroxyethyl)-2-phenethyl-2-azabicyclo[3.3.1]nonan-5-yl)phenol], the EC50 in data set [1] was > 50 µM; in data set [2], 0.013 ± 0.003 µM. Besides, the Emax in data set [1] was 0%; in data set [2] (setting [6]) it was 38%. Further, the “DOR Agonist %Emax ± SEM” value in data set [2] (cAMP assay, normalized to the forskolin control) is on record as 39 ± 3%. Further, the “antinociceptive effects (tail withdrawal latency)” value (“antinociceptive effects” below) in data set [3] is reported as “significantly increased tail withdrawal latency; also recorded: full antinociceptive effects in three of four subjects”. Further, the “respiratory depressant effects (ventilatory ratio: minute volumes in 5% CO2 vs room air)” value in data set [4] was “reduced the ability of 5% CO2 to stimulate increases in ventilation”. The “ventilatory ratio reached with increasing dose” value in data set [4] (ratio of minute volumes in 5% CO2 and room air) is “above 2”.
On to `Oc1cccc([C@]23CCC[C@H]([C@H]2O)N(CCc2ccccc2)CC3)c1` [Compound 2], for which the “times more potent than morphine” value in the data set on rodent is on record as ~500 times.
As to `OCCC[C@H]1[C@@H]2CCC[C@@]1(c1cccc(O)c1)CCN2CCc1ccccc1` [Compound 36], the figures for the EC50 in data set [1] and in data set [2] were > 50 µM and 0.102 ± 0.016 µM, respectively. Further, the Emax in data set [1] was 0%; in data set [2] (setting [6]), 41%. Also, in data set [3], the “antinociceptive effects” value is reported as “did not significantly increase tail withdrawal latency”. Further, in data set [4], the “respiratory depressant effects (ventilatory ratio: minute volumes in 5% CO2 vs room air)” value is given as “limited respiratory depressant effects”.
As to `COC[C@H]1[C@H]2CCC[C@]1(c1cccc(O)c1)CCN2CCc1ccccc1` [Compound 41, 3-((1R,5S,9R)-9-(Methoxymethyl)-2-phenethyl-2-azabicyclo[3.3.1]nonan-5-yl)phenol], the “Bias Factor” value in data set [1] amounted to 6.4. For the same compound, the EC50 in data set [1] came to 0.029 µM; in data set [2], 0.0024 ± 0.0016 µM. Besides, the Emax in data set [1] was 2.8%; in data set [2] (setting [6]), 20%. In addition, the IC50 in data set [5] came out at 0.054 ± 0.014 µM. In data set [5] (cAMP assay), the “DOR Antagonist %Imax ± SEM” value turned out to be 80 ± 8%.
In the case of `OCCC[C@H]1[C@H]2CCC[C@]1(c1cccc(O)c1)CCN2CCc1ccccc1` [Compound 34, 3-((1R,5S,9R)-9-(3-Hydroxypropyl)-2-phenethyl-2-azabicyclo[3.3.1]nonan-5-yl)phenol], in data set [1], the “Bias Factor” value is given as 14.0, the EC50 is 0.034 µM and the Emax was 3.1%. Besides, the EC50 in data set [2] is > 10 µM. Besides, in data set [2] (inhibition of forskolin-induced cAMP accumulation, CHO-K1 cells), the “DOR Agonist EC50 ± SEM (nM)” value was “no DOR agonist activity”. In data set [5], this compound came in with an IC50 of 0.041 ± 0.005 µM. Moreover, the “DOR Antagonist %Imax ± SEM” value in data set [5] (cAMP assay) came to 111 ± 4%. Besides, in data set [5] (cAMP assay, versus EC50 of SNC80), the “DOR Antagonist IC50 ± SEM (nM)” value is on record as “weak DOR antagonist activity”.
As for `CN1CC[C@]23c4c5ccc(O)c4O[C@H]2[C@@H](O)C=C[C@H]3[C@H]1C5` [Morphine, reference compound], the “antinociceptive effects” value in data set [3] is listed as “significantly increased tail withdrawal latency”.
For `OC[C@H]1[C@H]2CCC[C@]1(c1cccc(O)c1)CCN2CCc1ccccc1` [Compound 11, 3-((1R,5S,9R)-9-(Hydroxymethyl)-2-phenethyl-2-azabicyclo[3.3.1]nonan-5-yl)phenol], in data set [1], the “Bias Factor” value is on record as 13.4; the midpoint of the response, the EC50, lay at 0.187 µM; the Emax was 2.7%. In addition, the EC50 in data set [2] was 0.0085 ± 0.0035 µM. In data set [2] (setting [6]), the Emax is 35%.
For the compound `OC[C@H]1[C@@H]2CCC[C@@]1(c1cccc(O)c1)CCN2CCc1ccccc1` [Compound 15, 3-((1S,5R,9R)-9-(Hydroxymethyl)-2-phenethyl-2-azabicyclo[3.3.1]nonan-5-yl)phenol], the EC50 in data set [1] is > 50 µM; in data set [2], 0.0006 ± 0.0003 µM. Moreover, the Emax in data set [1] was 0%; in data set [2] (setting [6]) it was 17%. The “antinociceptive effects” value in data set [3] is on record as “did not significantly increase tail withdrawal latency”. The “respiratory depressant effects (ventilatory ratio: minute volumes in 5% CO2 vs room air)” value in data set [4] was “limited respiratory depressant effects”. In data set [5], this compound returned an IC50 of 0.336 ± 0.139 µM. For the same compound, the “DOR Antagonist %Imax ± SEM” value in data set [5] (cAMP assay) was 109 ± 8%.
